Results from patent US11076594B2, “Pyrazolone compound or salt thereof, preparation method therefor, herbicide composition and use thereof” (QINGDAO KINGAGROOT CHEMICAL COMPOUNDS CO., LTD., priority 2015, dated 2021).

Columns and labels:
Format in all cases: in vivo
wheat [1] = test: post-emergence stage experiment, crop (Table 1); conditions: post-emergence spray at 4-5 leaf stage, 250 g/ha active ingredient with 450 kg/ha water, rated after 3 weeks in greenhouse
Procedure, shortened: (§1)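 Seeds were sown in pots, covered with 0.5-2 cm soil and grown in a greenhouse. At the 4-5 leaf stage, plants were sprayed with the test compound formulated in acetone, Tween 80 and water. Fresh weight control was rated after 3 weeks.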

corn = test: post-emergence stage experiment, crop (Table 1); conditions: post-emergence spray at 4-5 leaf stage, 250 g/ha active ingredient with 450 kg/ha water, rated after 3 weeks in greenhouse
Procedure, shortened: as §1

wheat [2] = test: wheat field test, crop selectivity, greenhouse spray at 4 leaf stage; conditions: 4 weeks after treatment
Procedure, shortened: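 After sowing in pots under 0.5-2 cm soil, plants grow to the 4 leaf stage and receive a spray of compound formulated in acetone, methyl oleate emulsion and water. Four weeks later in the greenhouse, the fresh weight control rate gives the growth control rate.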

corn gromwell = test: wheat field resistant broadleaf weed control, greenhouse spray at 4 leaf stage; parameters: key: Level 10: completely dead; Level 9: above 95% growth control rate; Level 8: above 90% growth control rate; Level 7: above 80% growth control rate; Level 6: above 70% growth control rate; Level 5: above 60% growth control rate; Level 4: above 50% growth control rate; Level 3: above 20% growth control rate; Level 2: 5%-20% growth control rate; Level 1: below 5% growth control rate; conditions: 250 g/ha of the active substance; 4 weeks after treatment; ALS inhibitor resistant
Procedure, shortened: (§2)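 Compounds in acetone were mixed with methyl oleate emulsion, diluted with water and applied with a sprayer to greenhouse plants at the 4 leaf stage. Growth control, expressed as fresh weight control rate, was assessed after 4 weeks of further culture.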

flixweed = test: as above; parameters: key: Level 10: completely dead; Level 9: above 95% growth control rate; Level 8: above 90% growth control rate; Level 7: above 80% growth control rate; Level 6: above 70% growth control rate; Level 5: above 60% growth control rate; Level 4: above 50% growth control rate; Level 3: above 20% growth control rate; Level 2: 5%-20% growth control rate; Level 1: below 5% growth control rate; conditions: 250 g/ha of the active substance; 4 weeks after treatment; ALS inhibitor resistant
Procedure, shortened: as §2

shepherd's purse = test: as above; parameters: key: Level 10: completely dead; Level 9: above 95% growth control rate; Level 8: above 90% growth control rate; Level 7: above 80% growth control rate; Level 6: above 70% growth control rate; Level 5: above 60% growth control rate; Level 4: above 50% growth control rate; Level 3: above 20% growth control rate; Level 2: 5%-20% growth control rate; Level 1: below 5% growth control rate; conditions: 250 g/ha of the active substance; 4 weeks after treatment; ALS inhibitor resistant
Procedure, shortened: as §2

chickweed = test: as above; parameters: key: Level 10: completely dead; Level 9: above 95% growth control rate; Level 8: above 90% growth control rate; Level 7: above 80% growth control rate; Level 6: above 70% growth control rate; Level 5: above 60% growth control rate; Level 4: above 50% growth control rate; Level 3: above 20% growth control rate; Level 2: 5%-20% growth control rate; Level 1: below 5% growth control rate; conditions: 250 g/ha of the active substance; 4 weeks after treatment; ALS inhibitor resistant
Procedure, shortened: as §2

alopecurus japonicas = test: wheat field resistant weed control, greenhouse spray at 4 leaf stage; parameters: key: Level 10: completely dead; Level 9: above 95% growth control rate; Level 8: above 90% growth control rate; Level 7: above 80% growth control rate; Level 6: above 70% growth control rate; Level 5: above 60% growth control rate; Level 4: above 50% growth control rate; Level 3: above 20% growth control rate; Level 2: 5%-20% growth control rate; Level 1: below 5% growth control rate; conditions: sprayed at 4 leaf stage, 4 weeks after treatment, resistant to ALS and ACCase inhibitor herbicides
Procedure, shortened: as §2

rice = test: post-emergence stage experiment, crop (Table 1); conditions: post-emergence spray at 4-5 leaf stage, 250 g/ha active ingredient with 450 kg/ha water, rated after 3 weeks in greenhouse
Procedure, shortened: as §1

Indian mallow = test: weed control effect in post-emergence stage (Table 1); parameters: key: Level 10: completely dead; Level 9: above 95% growth control rate; Level 8: above 90% growth control rate; Level 7: above 80% growth control rate; Level 6: above 70% growth control rate; Level 5: above 60% growth control rate; Level 4: above 50% growth control rate; Level 3: above 20% growth control rate; Level 2: 5%-20% growth control rate; Level 1: below 5% growth control rate; conditions: post-emergence spray at 4-5 leaf stage, 250 g/ha active ingredient with 450 kg/ha water, rated after 3 weeks in greenhouse
Procedure, shortened: as §1

crab grass = test: as above; parameters: key: Level 10: completely dead; Level 9: above 95% growth control rate; Level 8: above 90% growth control rate; Level 7: above 80% growth control rate; Level 6: above 70% growth control rate; Level 5: above 60% growth control rate; Level 4: above 50% growth control rate; Level 3: above 20% growth control rate; Level 2: 5%-20% growth control rate; Level 1: below 5% growth control rate; conditions: post-emergence spray at 4-5 leaf stage, 250 g/ha active ingredient with 450 kg/ha water, rated after 3 weeks in greenhouse
Procedure, shortened: as §1

rorippa indica = test: as above; parameters: key: Level 10: completely dead; Level 9: above 95% growth control rate; Level 8: above 90% growth control rate; Level 7: above 80% growth control rate; Level 6: above 70% growth control rate; Level 5: above 60% growth control rate; Level 4: above 50% growth control rate; Level 3: above 20% growth control rate; Level 2: 5%-20% growth control rate; Level 1: below 5% growth control rate; conditions: post-emergence spray at 4-5 leaf stage, 250 g/ha active ingredient with 450 kg/ha water, rated after 3 weeks in greenhouse
Procedure, shortened: as §1

foxtail = test: as above; parameters: key: Level 10: completely dead; Level 9: above 95% growth control rate; Level 8: above 90% growth control rate; Level 7: above 80% growth control rate; Level 6: above 70% growth control rate; Level 5: above 60% growth control rate; Level 4: above 50% growth control rate; Level 3: above 20% growth control rate; Level 2: 5%-20% growth control rate; Level 1: below 5% growth control rate; conditions: post-emergence spray at 4-5 leaf stage, 250 g/ha active ingredient with 450 kg/ha water, rated after 3 weeks in greenhouse
Procedure, shortened: as §1

bidens bipinnata = test: as above; parameters: key: Level 10: completely dead; Level 9: above 95% growth control rate; Level 8: above 90% growth control rate; Level 7: above 80% growth control rate; Level 6: above 70% growth control rate; Level 5: above 60% growth control rate; Level 4: above 50% growth control rate; Level 3: above 20% growth control rate; Level 2: 5%-20% growth control rate; Level 1: below 5% growth control rate; conditions: post-emergence spray at 4-5 leaf stage, 250 g/ha active ingredient with 450 kg/ha water, rated after 3 weeks in greenhouse
Procedure, shortened: as §1

echinochloa = test: as above; parameters: key: Level 10: completely dead; Level 9: above 95% growth control rate; Level 8: above 90% growth control rate; Level 7: above 80% growth control rate; Level 6: above 70% growth control rate; Level 5: above 60% growth control rate; Level 4: above 50% growth control rate; Level 3: above 20% growth control rate; Level 2: 5%-20% growth control rate; Level 1: below 5% growth control rate; conditions: post-emergence spray at 4-5 leaf stage, 250 g/ha active ingredient with 450 kg/ha water, rated after 3 weeks in greenhouse
Procedure, shortened: as §1

[3] = 2 g/mu, sprayed at 4 leaf stage
[4] = 4 g/mu, sprayed at 4 leaf stage
[5] = 8 g/mu, sprayed at 4 leaf stage
[6] = 16 g/mu, sprayed at 4 leaf stage
[7] = 32 g/mu, sprayed at 4 leaf stage
[8] = 250 g/ha of the active substance

Compound | effect on crop, Wheat (level) (wheat [1]) | effect on crop, Corn (level) (corn) | Wheat (activity level, crop damage) (wheat [2]; [3]) | Wheat (activity level, crop damage) (wheat [2]; [4]) | Wheat (activity level, crop damage) (wheat [2]; [5]) | Wheat (activity level, crop damage) (wheat [2]; [6]) | Wheat (activity level, crop damage) (wheat [2]; [7]) | Wheat (activity level, crop damage) (wheat [2]; [8]) | corn gromwell weed controlling effect (activity level) (corn gromwell) | flixweed weed controlling effect (activity level) (flixweed) | shepherd's purse weed controlling effect (activity level) (shepherd's purse) | chickweed weed controlling effect (activity level) (chickweed) | Alopecurus japonicas weed controlling effect (activity level) (alopecurus japonicas; 1 g/mu) | effect on crop, Rice (level) (rice) | weed control effect, Indian mallow (level) (Indian mallow) | weed control effect, Crab grass (level) (crab grass) | weed control effect, Rorippa indica (level) (rorippa indica) | weed control effect, Green foxtail (level) (foxtail) | weed control effect, Bidens bipinnata (level) (bidens bipinnata) | weed control effect, Echinochloa (level) (echinochloa) | other results
CCOc1c(C(=O)Oc2c(C(=O)c3ccc(C(F)(F)F)c(N4CCCCC4=O)c3Cl)c(C3CC3)nn2C)cnn1C [Compound 048] | 1 (Level 1: below 5% growth control rate) | 3 (Level 3: above 20% growth control rate) | 0 | 0 | 0 | 1 (Level 1: below 5% growth control rate) | 4 (Level 4: above 50% growth control rate) | 0 | 10 | 10 | 10 | 10 | 8 (Level 8: above 90% growth control rate) | 5 (Level 5: above 60% growth control rate) | 10 | 7 (Level 7: above 80% growth control rate) | 10 | 8 (Level 8: above 90% growth control rate) | 4 (Level 4: above 50% growth control rate) | 6 (Level 6: above 70% growth control rate) | Alopecurus japonicas weed controlling effect (activity level) (alopecurus japonicas; 2 g/mu): 10; Alopecurus japonicas weed controlling effect (activity level) (alopecurus japonicas; 4 g/mu): 10; Alopecurus japonicas weed controlling effect (activity level) (alopecurus japonicas; 8 g/mu): 10
Cn1nc(C2CC2)c(C(=O)c2ccc(C(F)(F)F)c(N3CCCCC3=O)c2Cl)c1O [Compound 046] | 0 | 4 (Level 4: above 50% growth control rate) | 0 | 0 | 0 | 0 | 1 (Level 1: below 5% growth control rate) | 0 | 10 | 10 | 10 | 10 | 6 (Level 6: above 70% growth control rate) | 5 (Level 5: above 60% growth control rate) | 10 | 6 (Level 6: above 70% growth control rate) | 10 | 10 | 2 (Level 2: 5%-20% growth control rate) | 6 (Level 6: above 70% growth control rate) | Alopecurus japonicas weed controlling effect (activity level) (alopecurus japonicas; 2 g/mu): 9 (Level 9: above 95% growth control rate); Alopecurus japonicas weed controlling effect (activity level) (alopecurus japonicas; 4 g/mu): 10; Alopecurus japonicas weed controlling effect (activity level) (alopecurus japonicas; 8 g/mu): 10
CCOc1c(C(=O)Oc2c(C(=O)c3ccc(C(F)(F)F)c(-n4cc(C)cn4)c3Cl)c(C)nn2C)cnn1C [Compound 086] | 0 | 0 | – | – | – | – | – | 0 | 10 | 10 | 10 | 10 | – | 2 (Level 2: 5%-20% growth control rate) | 10 | 4 (Level 4: above 50% growth control rate) | 10 | 2 (Level 2: 5%-20% growth control rate) | 6 (Level 6: above 70% growth control rate) | 5 (Level 5: above 60% growth control rate) | –
